Laboratory results published in patent US11801226B2, “Pharmaceutical formulation of odevixibat” (Albireo AB, priority 2018, dated 2023).
In brackets after ≈: the same amount, converted by molar mass.

Assays:
Type in all cases: physicochemical
[1] = Water content / hygroscopicity of crystal modification 1 versus relative humidity
Source text: Crystal modification 1 of odevixibat cannot only be obtained from a mixture of water and ethanol, as described above, but also from a slurry of odevixibat in a mixture of water and an organic solvent selected from the group consisting of methanol, 2-propanol, acetone, acetonitrile, 1,4-dioxane, DMF and DMSO. Upon drying of the different mixed solvates obtained under these conditions (crystal modification 2), the same crystalline hydrate of odevixibat is obtained, namely crystal modification 1. Crystal modification 1 contains void volumes that are capable of containing up to about 2 moles of water associated with the crystal per mole of odevixibat, depending on the relative humidity. This form is therefore formally a channel hydrate. At about 30% relative humidity, however, crystal modification 1 contains a substantially stoichiometric amount of about 1.5 moles of water per mole of organic compound and is thus a sesquihydrate. The substantially stoichiometric amount of water is considered advantageous, as the water content of the crystals remains substantially constant even with humidity changes within the normal relative humidity range of about 30% to about 70% RH.
Whereas crystal modification 1 is a sesquihydrate containing about 3.5% (w/w) water at about 30% relative humidity (based on the total crystal weight), it has been observed that the crystal can take up an additional 1.5% (w/w) water when the humidity is increased up to 95% RH. The sorption and desorption of this additional water is fully reversible. The additional water may be adsorbed on the surface or may further fill the channels of the structure. In some embodiments, the term “overhydrated” refers to crystal modification 1 containing from about 1.5 to about 4 moles of water per mole of odevixibat, such as from about 1.5 to about 3.5, or such as from about 1.5 to 3, or such as from about 1.5 to about 2.5, or such as from about 1.5 to about 2 moles of water per mole of odevixibat. In some embodiments, the term “overhydrated” refers to crystal modification 1 containing from about 2 to about 4 moles of water per mole of odevixibat, such as from about 2 to about 3.5, or such as from about 2 to about 3, or such as from about 2 to 2.5 moles of water per mole of odevixibat.

[2] = Particle size distribution of crystalline odevixibat drug substance; settings: typical value, crystalline material
Source text: Crystalline odevixibat was used. Typical values for the particle size distribution of the crystalline material were d10=0.9 μm, d50=4 μm and d90=20 μm, wherein d10, d50 and d90 are defined as the diameters where 10%, 50% and 90%, respectively, of the particle population lies below these values. […]

[3] = Solubility of odevixibat in water; settings: pH 7, 37° C.
Source text: It is desirable that the use of organic solvents in the preparation of the formulation is avoided. In some embodiments, water is used as the solvent for the preparation of the formulation. […] Because of this low solubility in water, aqueous suspensions of odevixibat can contain larger agglomerates of odevixibat, which may lead to an uneven distribution of the active pharmaceutical ingredient on the cores, i.e. the cores may contain different amounts of odevixibat, which in turn impacts dose uniformity. Accordingly, in some embodiments, the aqueous suspension of odevixibat is homogeneous. In some embodiments, a homogeneous aqueous suspension of odevixibat is sprayed onto the cores.

SMILES	water content ([1]; about 30% relative humidity)	water content of crystal ([1]; about 30% relative humidity, based on total crystal weight)	hygroscopicity ([1]; between about 30 and about 70% RH)	additional water taken up ([1]; humidity increased up to 95% RH, fully reversible)	particle size distribution d10 [2] [μm]	particle size distribution d50 [2] [μm]	particle size distribution d90 [2] [μm]	solubility [3] [µg/mL]
CCCCC1(CCCC)CN(c2ccccc2)c2cc(SC)c(OCC(=O)N[C@@H](C(=O)N[C@@H](CC)C(=O)O)c3ccc(O)cc3)cc2S(=O)(=O)N1 [crystal modification 1]	about 1.5 moles of water per mole of organic compound	about 3.5 % (w/w)	relatively low hygroscopicity	1.5 % (w/w)				
CCCCC1(CCCC)CN(c2ccccc2)c2cc(SC)c(OCC(=O)N[C@@H](C(=O)N[C@@H](CC)C(=O)O)c3ccc(O)cc3)cc2S(=O)(=O)N1 [odevixibat, 1,1-dioxo-3,3-dibutyl-5-phenyl-7-methylthio-8-(N—{(R)-α-[N—((S)-1-carboxypropyl)carbamoyl]-4-hydroxybenzyl}carbamoylmethoxy)-2,3,4,5-tetrahydro-1,2,5-benzothiadiazepine]					0.9	4	20	~30 (≈ 40.5 µM)
